Reference: publication PMC7369900 (International Journal of Molecular Sciences, 2020)
Values after ≈ are worked out from the molar mass of the structure shown.

What was measured:
HEK 293 [1] = experiment: cells; assay type: cell-based, human; conditions: HEK 293, 72 h, MTT
Experimental: (§1) Among the conjugates, LVXC-S-S-CTP10-NH2 (5) was the least cytotoxic. […] In the case of HEK 293 and LLC-PK1 cells, the IC50 values of 5 were nearly four times higher. […] Additionally, we noted that the cancer cells Hep G2 were less sensitive to the action of the given compounds than the non-cancer cells (HEK 293 and LLC-PK1).
(§2) Cytotoxicity was assessed against three mammalian cell lines: LLC-PK1, Hep G2, and HEK 293. Multiwell (96–well) plates were seeded at 7000 cells/well in Medium 199 supplemented with 7.5% FBS, MEM Eagle’s medium supplemented with 10% FBS, or DMEM medium supplemented with 10% FBS, respectively. All media were supplemented with L-glutamine and antibiotics (penicillin/streptomycin). Cells were allowed to attach overnight. Drugs were dissolved in cell culture medium and added to wells in 100-µL aliquots of 2× concentrated solutions, in triplicates. To control wells, 100 µL of the medium were added. Cells were incubated with the studied compounds for 72 h at 37 °C and 95%/5% or 90%/10% (HEK 293 cells) CO2 atmosphere. Then, 20-µL aliquots of MTT solution in PBS (4 mg/mL) were added to all wells and plates were incubated further for 3 h in 37 °C. Formazan crystals formed were dissolved in 100 µL of DMSO and the absorbance of the solutions was measured using a multiwell plate reader (Spark, Tecan, Männedorf, Switzerland) at λ = 540 nm. Cytotoxicity was determined compared to the drug-free control. All experiments were performed in triplicates.

Hep G2 = experiment: cells; assay type: cell-based, human; conditions: Hep G2, 72 h, MTT
Experimental: as §1, §2

E. coli ATCC 25922 = experiment: microbe, parasite or virus in culture; assay type: cell-based, Escherichia coli; conditions: E. coli ATCC 25922, MHB
Experimental: (§3) The antibacterial activity of TP10-NH2-based conjugates, as well as its constituents, was evaluated by microdilution assay in Mueller Hinton broth, MHB (Table 1). […] There are, however, some exceptions. […] Its activity against two other tested bacteria was somewhat lower though.
(§4) The antibacterial activity (bacteriostatic: MIC and bactericidal: MBC) of the tested compounds was determined in MHB (Mueller Hinton Broth, Sigma Aldrich, St. Louis, MO, USA) using a serial two-fold dilution method in 96-well microtiter plates according to CLSI recommendations, described in M07-A10 document. The exact conditions have been described previously. All experiments were performed in three replicates. The MIC90 and MIC50 values were defined as the concentrations of compounds tested that caused a 90% or 50% reduction of growth, respectively, comparing to the drug-free control.

S. aureus ATCC 29213 = experiment: microbe, parasite or virus in culture; assay type: cell-based, Staphylococcus aureus; conditions: S. aureus ATCC 29213, MHB
Experimental: as §3, §4

P. aeruginosa ATCC 27853 = experiment: microbe, parasite or virus in culture; assay type: cell-based, Pseudomonas aeruginosa; conditions: P. aeruginosa ATCC 27853, MHB
Experimental: as §3, §4

[2] = tested on: C. albicans Δopt1Δopt5Δptr2Δptr22
[3] = tested on: S. epidermidis ATCC 12228; experiment: microbe, parasite or virus in culture; assay type: cell-based, Staphylococcus epidermidis; conditions: S. epidermidis ATCC 12228, MHB
Experimental: as §3, §4

HL-60 = experiment: ROS generation (CM-H2DCFDA, flow cytometry); assay type: cell-based, human; conditions: for ROS HL-60: positive cells in 24 h, class
Experimental: (§5) In the positive controls treated with H2O2, the fraction of ROS-positive cells exceeded 75%. […] Strikingly, in HL-60, a biologically significant effect was observed almost immediately (after 15 min of incubation). The same was noted after 1 h in the HEK 293 cell line. […] Similarly, conjugates 4 and 5 generated ROS at the low level (less than 15% for HL-60 and less than 20% for HEK 293) (manuscript in preparation). […] For HL-60, the critical level of ROS was noted after 15 min of incubation.
(§6) ROS generation activity was evaluated as described previously. Briefly, HEK 293 cells were seeded on 35-mm Petri dishes in the amount of 15,000 cells per plate for 24 h in DMEM medium. […] Positive controls contained 250 µM H2O2, while negative controls were without any additions. After 0.5, 2.5, 5.5, and 24 h of incubation at 37 °C, the CM-H2DCFDA molecular probe (Thermo Fischer Scientific, Waltham, USA) was added to the plates and incubation was continued for another 0.5 h. The HEK 293 cells were detached with 0.05% trypsin solution in PBS and HBSS (Hank’s Balanced Salt Solution) and suspended in fresh DMEM medium. All samples were additionally stained with 7-AAD (7-aminoactinomycin D, 0.8 µg/mL) and immediately analysed with a Guava easyCyte flow cytometer (Merc, Burlington, USA). The determinations were performed in triplicates.

HEK 293 [4] = experiment: ROS generation (CM-H2DCFDA, flow cytometry); assay type: cell-based, human; conditions: for ROS HEK 293: positive cells in 24 h, class
Experimental: as §5, §6

LLC-PK1 = experiment: cells; assay type: cell-based, pig; conditions: LLC-PK1, 72 h, MTT
Experimental: as §1, §2

[5] = tested on: Gram-positive and Gram-negative bacteria; assay type: cell-based; conditions: MHB, Gram-positive bacteria
Experimental: as §3, §4

[6] = target: T1, yeast DNA topoisomerase II (Saccharomyces cerevisiae, UniProt P06786); experiment: biochemical; assay type: biochemical; conditions: class; read-out: Topoisomerase II Inhibition
T1 construct: purchased Inspiralis (Norwich, UK)

human red blood cells = experiment: Hemolysis assay; conditions: 1 h, 37 °C

T1 sequence (P06786 whole entry): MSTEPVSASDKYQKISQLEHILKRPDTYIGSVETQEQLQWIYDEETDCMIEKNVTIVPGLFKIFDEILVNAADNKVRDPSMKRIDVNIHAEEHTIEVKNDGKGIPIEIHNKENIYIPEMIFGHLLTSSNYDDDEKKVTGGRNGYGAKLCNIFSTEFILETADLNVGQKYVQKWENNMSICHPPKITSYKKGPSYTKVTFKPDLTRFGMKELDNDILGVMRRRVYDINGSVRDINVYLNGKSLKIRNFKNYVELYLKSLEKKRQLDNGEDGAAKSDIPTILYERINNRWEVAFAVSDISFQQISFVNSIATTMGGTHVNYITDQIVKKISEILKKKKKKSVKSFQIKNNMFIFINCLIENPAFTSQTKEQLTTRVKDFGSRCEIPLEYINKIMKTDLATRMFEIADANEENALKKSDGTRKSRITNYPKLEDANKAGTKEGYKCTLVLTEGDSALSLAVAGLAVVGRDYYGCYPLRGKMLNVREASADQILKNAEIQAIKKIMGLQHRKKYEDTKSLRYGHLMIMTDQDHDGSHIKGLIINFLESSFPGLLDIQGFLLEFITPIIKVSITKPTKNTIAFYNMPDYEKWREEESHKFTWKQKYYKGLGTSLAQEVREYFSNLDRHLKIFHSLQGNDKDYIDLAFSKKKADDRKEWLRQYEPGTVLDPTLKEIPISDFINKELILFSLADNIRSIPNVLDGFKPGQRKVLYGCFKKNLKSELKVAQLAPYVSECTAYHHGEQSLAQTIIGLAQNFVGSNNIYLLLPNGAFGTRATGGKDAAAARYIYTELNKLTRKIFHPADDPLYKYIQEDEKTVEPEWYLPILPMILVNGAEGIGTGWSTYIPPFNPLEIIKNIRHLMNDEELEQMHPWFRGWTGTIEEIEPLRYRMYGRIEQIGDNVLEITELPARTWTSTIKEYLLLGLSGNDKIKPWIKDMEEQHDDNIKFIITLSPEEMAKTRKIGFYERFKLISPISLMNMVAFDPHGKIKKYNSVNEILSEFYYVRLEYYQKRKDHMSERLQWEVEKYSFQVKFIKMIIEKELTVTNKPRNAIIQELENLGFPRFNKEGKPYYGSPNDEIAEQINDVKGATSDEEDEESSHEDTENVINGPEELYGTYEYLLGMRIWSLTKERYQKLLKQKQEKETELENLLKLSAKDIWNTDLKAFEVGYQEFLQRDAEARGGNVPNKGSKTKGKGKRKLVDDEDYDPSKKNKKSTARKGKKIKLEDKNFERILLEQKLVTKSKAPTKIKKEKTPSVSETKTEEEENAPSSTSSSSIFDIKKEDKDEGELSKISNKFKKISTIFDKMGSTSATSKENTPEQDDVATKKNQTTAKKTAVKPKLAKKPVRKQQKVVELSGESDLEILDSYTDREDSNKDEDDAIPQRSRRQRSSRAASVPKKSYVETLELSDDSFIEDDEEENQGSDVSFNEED

Row | SMILES | MIC50 (C. glabrata DSM 11226) [µM] | IC50 (HEK 293 [1]) [µM] | IC50 (Hep G2) [µM] | MIC50 (E. coli ATCC 25922) [µM] | MIC90 (E. coli ATCC 25922) [µM] | MIC50 (S. aureus ATCC 29213) [µM] | MIC90 (S. aureus ATCC 29213) [µM] | MIC50 (P. aeruginosa ATCC 27853) [µM] | MIC90 (P. aeruginosa ATCC 27853) [µM] | MIC50 (C. albicans Gu4) [µM] | MIC50 (C. albicans SC 5314) [µM] | MIC50 [2] [µM] | MIC90 [2] [µM] | MIC50 [3] [µM] | MIC90 [3] [µM] | ROS HEK 293 (HEK 293 [4]) | MIC50 (C. krusei DSM 6128) [µM] | IC50 (LLC-PK1) [µM] | IC50 [6] [µM] | MIC90 (C. albicans SC 5314) [µM] | also measured
1 | CC[C@H](C)[C@H](NC(=O)[C@H](CCCCN)NC(=O)[C@H](CCCCN)NC(=O)[C@H](C)NC(=O)[C@H](CC(C)C)NC(=O)[C@H](C)NC(=O)[C@H](C)NC(=O)[C@H](CC(C)C)NC(=O)[C@H](C)NC(=O)[C@H](CCCCN)NC(=O)[C@H](CC(C)C)NC(=O)[C@H](CC(N)=O)NC(=O)[C@@H](NC(=O)[C@H](CCCCN)NC(=O)CNC(=O)[C@H](CC(C)C)NC(=O)[C@H](CC(C)C)NC(=O)[C@H](Cc1ccc(O)cc1)NC(=O)CNC(=O)[C@H](C)NC(=O)[C@@H](N)CSSC[C@H](N)C(=O)N1CCN(c2cc3c(cc2F)c(=O)c(C(=O)O)cn3C2CC2)CC1)[C@@H](C)CC)C(=O)N[C@@H](CC(C)C)C(N)=O [Compound 6, CIPC-S-S-CTP10-NH2] | >200 | 20.8 ± 10.9 | 37.7 ± 2.84 | 6.25 (≈ 17 µg/mL) | 6.25 (≈ 17 µg/mL) | 3.125 (≈ 8.49 µg/mL) | 3.125 (≈ 8.49 µg/mL) | >100 | >100 | 25 (≈ 67.9 µg/mL) | 50 (≈ 136 µg/mL) | 50 (≈ 136 µg/mL) | 50 (≈ 136 µg/mL) | 6.25 (≈ 17 µg/mL) | 6.25 (≈ 17 µg/mL) | ++ (++ <10% positive cells in 24 h) | >200 | 21.3 ± 1.33 | – | – | Incubation time at which significant/critical ROS level was noted (HL-60; HL-60): 15 min; ROS induction (HEK 293 [4]; HEK 293): did not induce a significant level of ROS
2 | CC[C@H](C)[C@H](NC(=O)[C@H](CCCCN)NC(=O)[C@H](CCCCN)NC(=O)[C@H](C)NC(=O)[C@H](CC(C)C)NC(=O)[C@H](C)NC(=O)[C@H](C)NC(=O)[C@H](CC(C)C)NC(=O)[C@H](C)NC(=O)[C@H](CCCCN)NC(=O)[C@H](CC(C)C)NC(=O)[C@H](CC(N)=O)NC(=O)[C@@H](NC(=O)[C@H](CCCCN)NC(=O)CNC(=O)[C@H](CC(C)C)NC(=O)[C@H](CC(C)C)NC(=O)[C@H](Cc1ccc(O)cc1)NC(=O)CNC(=O)[C@H](C)NC(=O)c1cn2c3c(c(N4CCN(C)CC4)c(F)cc3c1=O)OC[C@@H]2C)[C@@H](C)CC)C(=O)N[C@@H](CC(C)C)C(N)=O [Compound 4, LVX-TP10-NH2] | >200 | 22.5 ± 9.7 | 72.6 ± 13 | 50 (≈ 126 µg/mL) | 50 (≈ 126 µg/mL) | 1.6 (≈ 4.04 µg/mL) | 1.6 (≈ 4.04 µg/mL) | 100 (≈ 253 µg/mL) | 100 (≈ 253 µg/mL) | 25 (≈ 63.1 µg/mL) | 50 (≈ 126 µg/mL) | 100 (≈ 253 µg/mL) | 100 (≈ 253 µg/mL) | 1.6 (≈ 4.04 µg/mL) | 1.6 (≈ 4.04 µg/mL) | ++ (++ <10% positive cells in 24 h) | 100 (≈ 253 µg/mL) | 52.9 ± 8.15 | < 10 | 100 (≈ 253 µg/mL) | MIC90 against Gram-positive bacteria [5]: 1.6 µM (≈ 4.04 µg/mL); ROS level (positive cells) (HL-60; HL-60): less than 15%; ROS HL-60 (HL-60): + (+ <15% positive cells in 24 h); ROS level (positive cells) (HEK 293 [4]; HEK 293): less than 20%
3 | CC[C@H](C)[C@H](NC(=O)[C@H](CCCCN)NC(=O)[C@H](CCCCN)NC(=O)[C@H](C)NC(=O)[C@H](CC(C)C)NC(=O)[C@H](C)NC(=O)[C@H](C)NC(=O)[C@H](CC(C)C)NC(=O)[C@H](C)NC(=O)[C@H](CCCCN)NC(=O)[C@H](CC(C)C)NC(=O)[C@H](CC(N)=O)NC(=O)[C@@H](NC(=O)[C@H](CCCCN)NC(=O)CNC(=O)[C@H](CC(C)C)NC(=O)[C@H](CC(C)C)NC(=O)[C@H](Cc1ccc(O)cc1)NC(=O)CNC(=O)[C@H](C)NC(=O)[C@@H](N)CS)[C@@H](C)CC)C(=O)N[C@@H](CC(C)C)C(N)=O [CTP10-NH2] | – | 19.5 ± 2.93 | 60 ± 5.75 | – | – | – | – | – | – | – | – | – | – | – | – | – | – | 51.6 ± 8.66 | – | – | –
4 | CC[C@H](C)[C@H](NC(=O)[C@H](CCCCN)NC(=O)[C@H](CCCCN)NC(=O)[C@H](C)NC(=O)[C@H](CC(C)C)NC(=O)[C@H](C)NC(=O)[C@H](C)NC(=O)[C@H](CC(C)C)NC(=O)[C@H](C)NC(=O)[C@H](CCCCN)NC(=O)[C@H](CC(C)C)NC(=O)[C@H](CC(N)=O)NC(=O)[C@@H](NC(=O)[C@H](CCCCN)NC(=O)CNC(=O)[C@H](CC(C)C)NC(=O)[C@H](CC(C)C)NC(=O)[C@H](Cc1ccc(O)cc1)NC(=O)CNC(=O)[C@H](C)NC(=O)[C@@H](N)CSSC[C@H](NC(=O)c1cn2c3c(c(N4CCN(C)CC4)c(F)cc3c1=O)OC[C@@H]2C)C(=O)O)[C@@H](C)CC)C(=O)N[C@@H](CC(C)C)C(N)=O [Compound 5, LVXC-S-S-CTP10-NH2] | >200 | 41.3 ± 1.1 | 102 ± 4.9 | 3.125 (≈ 8.59 µg/mL) | 3.125 (≈ 8.59 µg/mL) | 6.25 (≈ 17.2 µg/mL) | 6.25 (≈ 17.2 µg/mL) | 12.5 (≈ 34.3 µg/mL) | 25 (≈ 68.7 µg/mL) | 12.5 (≈ 34.3 µg/mL) | 12.5 (≈ 34.3 µg/mL) | 12.5 (≈ 34.3 µg/mL) | 25 (≈ 68.7 µg/mL) | 3.125 (≈ 8.59 µg/mL) | 3.125 (≈ 8.59 µg/mL) | ++ (++ <10% positive cells in 24 h) | 50 (≈ 137 µg/mL) | 105 ± 15.6 | < 50 | 25 (≈ 68.7 µg/mL) | MHC50 (concentration causing 50% hemolysis) (human red blood cells): 140 µg/mL; MHC50 (concentration causing 50% hemolysis) (human red blood cells; converted from μg/mL): ~ 51 μM; ROS level (positive cells) (HL-60; HL-60): less than 15%; ROS HL-60 (HL-60): ++ (++ <10% positive cells in 24 h); ROS level (positive cells) (HEK 293 [4]; HEK 293): less than 20%
